Measurements taken from PubChem BioAssay (NCI).
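Grown in 96-well plates, cells were treated for 48 hours with each compound at five concentrations. Insufficient inhibition: endpoint recorded as highest concentration tested. Abbreviation: GI50, concentration required for 50% inhibition of growth. TGI denotes the concentration required for complete inhibition of growth.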

How the values were obtained:
Assay in all cases: NCI anticancer screen, dose series, 48 h
NCI/ADR-RES ovarian = test system: NCI/ADR-RES ovarian
OVCAR-3 ovarian = test system: OVCAR-3 ovarian
OVCAR-4 ovarian = test system: OVCAR-4 ovarian
OVCAR-5 ovarian = test system: OVCAR-5 ovarian
OVCAR-8 ovarian = test system: OVCAR-8 ovarian
PC-3 prostate = test system: PC-3 prostate
RPMI-8226 leukemia = test system: RPMI-8226 leukemia
RXF 393 renal = test system: RXF 393 renal
SF-268 CNS = test system: SF-268 CNS
SF-295 CNS = test system: SF-295 CNS
SF-539 CNS = test system: SF-539 CNS
SK-MEL-2 melanoma = test system: SK-MEL-2 melanoma
SK-MEL-28 melanoma = test system: SK-MEL-28 melanoma
SK-MEL-5 melanoma = test system: SK-MEL-5 melanoma
SK-OV-3 ovarian = test system: SK-OV-3 ovarian
SN12C renal = test system: SN12C renal
SNB-75 CNS = test system: SNB-75 CNS
SW-620 colon = test system: SW-620 colon
TK-10 renal = test system: TK-10 renal
U251 CNS = test system: U251 CNS
UACC-257 melanoma = test system: UACC-257 melanoma
UACC-62 melanoma = test system: UACC-62 melanoma
UO-31 renal = test system: UO-31 renal

## C#CC[C@@H]1C[C@]2(C)[C@H]3CC[C@@H]4[C@H]5C(C(=C)C)CC[C@]5(C(=O)NCCCCN)CC[C@@]4(C)[C@]3(C)CC[C@H]2C(C)(C)[C@H]1OC(C)=O (stereo not given in full)
NCI/ADR-RES ovarian
  TGI: 3.98 µM
OVCAR-3 ovarian
  GI50: 1.78 µM
  TGI: 3.33 µM
OVCAR-4 ovarian
  GI50: 1.76 µM
  TGI: 3.33 µM
OVCAR-5 ovarian
  GI50: 1.67 µM
  TGI: 3.06 µM
OVCAR-8 ovarian
  GI50: 2.21 µM
  TGI: 5.34 µM
PC-3 prostate
  GI50: 1.64 µM
  TGI: 3.17 µM
RPMI-8226 leukemia
  GI50: 2.1 µM
  TGI: 5.06 µM
RXF 393 renal
  GI50: 1.55 µM
  TGI: 3.14 µM
SF-268 CNS
  GI50: 1.85 µM
  TGI: 3.93 µM
SF-295 CNS
  GI50: 1.84 µM
  TGI: 3.41 µM
SF-539 CNS
  GI50: 1.66 µM
  TGI: 3.11 µM
SK-MEL-2 melanoma
  GI50: 1.71 µM
  TGI: 3.4 µM
SK-MEL-28 melanoma
  GI50: 1.76 µM
  TGI: 3.25 µM
SK-MEL-5 melanoma
  GI50: 1.8 µM
  TGI: 3.27 µM
SK-OV-3 ovarian
  GI50: 1.94 µM
  TGI: 3.54 µM
SN12C renal
  GI50: 1.73 µM
  TGI: 3.34 µM
SNB-75 CNS
  GI50: 1.41 µM
  TGI: 2.78 µM
SW-620 colon
  GI50: 1.83 µM
  TGI: 3.74 µM
TK-10 renal
  GI50: 1.86 µM
  TGI: 3.48 µM
U251 CNS
  GI50: 1.81 µM
  TGI: 3.51 µM
UACC-257 melanoma
  GI50: 1.89 µM
  TGI: 3.77 µM
UACC-62 melanoma
  GI50: 1.82 µM
  TGI: 3.26 µM
UO-31 renal
  GI50: 1.56 µM
  TGI: 2.95 µM
